Data taken from ChEMBL document CHEMBL3885881, “DrugMatrix”.

Species: Rattus norvegicus
Test: DrugMatrix - Regimen: Daily Repeat
Assay type: toxicity, organism-based, Sprague-Dawley
Design: regimen Daily Repeat, gender Male, age 6-8 weeks
Details: in vivo, iv, vehicle 100 % SALINE; for ABSOLUTE BASOPHIL / ABSOLUTE EOSINOPHIL / ABSOLUTE LYMPHOCYTE / ABSOLUTE MONOCYTE / ABSOLUTE SEGMENTED NEUTROPHIL / BASOPHIL / EOSINOPHIL / ERYTHROCYTE COUNT / HEMATOCRIT / HEMOGLOBIN / LEUKOCYTE COUNT / LYMPHOCYTE / MEAN CORPUSCULAR HEMOGLOBIN / MEAN CORPUSCULAR HEMOGLOBIN CONCENTRATION / MEAN CORPUSCULAR VOLUME / MONOCYTE / NEUTROPHIL / NUCLEATED RED BLOOD CELLS / PLATELET COUNT: tissue Blood; for ALANINE AMINOTRANSFERASE / ALBUMIN / ALKALINE PHOSPHATASE / ASPARTATE AMINOTRANSFERASE / BLOOD UREA NITROGEN / CARBON DIOXIDE / CHLORIDE / CHOLESTEROL / CREATINE PHOSPHOKINASE / CREATININE / GLUCOSE / LACTATE DEHYDROGENASE / LIPASE / PHOSPHORUS / POTASSIUM / SODIUM / TOTAL BILIRUBIN / TOTAL PROTEIN / URIC ACID: tissue Plasma
[1] = 12 mg/kg, 120 h, dose level High, time 5 day
[2] = […], 72 h, dose 1.2 mg/Kg, dose level Low, time 3 day
[3] = […], 120 h, dose 1.2 mg/Kg, dose level Low, time 5 day

## Cc1c(N)nc([C@H](CC(N)=O)NC[C@H](N)C(N)=O)nc1C(=O)N[C@H](C(=O)N[C@H](C)[C@@H](O)[C@H](C)C(=O)N[C@H](C(=O)NCCc1nc(-c2nc(C(=O)NCCC[S+](C)C)cs2)cs1)[C@@H](C)O)[C@@H](O[C@@H]1O[C@@H](CO)[C@@H](O)[C@H](O)[C@@H]1O[C@H]1O[C@H](CO)[C@@H](O)[C@H](OC(N)=O)[C@@H]1O)c1c[nH]cn1.[Br-] [BLEOMYCIN A2]
[1]
  ABSOLUTE BASOPHIL: 0 CELLS/uL
  ABSOLUTE EOSINOPHIL: 50 CELLS/uL
  ABSOLUTE LYMPHOCYTE: 10142.67 CELLS/uL
  ABSOLUTE MONOCYTE: 392.67 CELLS/uL
  ABSOLUTE SEGMENTED NEUTROPHIL: 1914.67 CELLS/uL
  BASOPHIL: 0%
  EOSINOPHIL: 0.33%
  ERYTHROCYTE COUNT: 6.36 x10E6/uL
  HEMATOCRIT: 38.97%
  HEMOGLOBIN: 15.17 G/DL
  LEUKOCYTE COUNT: 12.5 x10E3/uL
  LYMPHOCYTE: 80%
  MEAN CORPUSCULAR HEMOGLOBIN: 23.87 pg
  MEAN CORPUSCULAR HEMOGLOBIN CONCENTRATION: 38.93 G/DL
  MEAN CORPUSCULAR VOLUME: 61.27 fL
  MONOCYTE: 3.33%
  NEUTROPHIL: 16.33%
  NUCLEATED RED BLOOD CELLS: 0.33 /100WBC
  PLATELET COUNT: 1342 x10E3/uL
  ALANINE AMINOTRANSFERASE: 41.67 u/L
  ALBUMIN: 3.83 G/DL
  ALKALINE PHOSPHATASE: 202.67 u/L
  ASPARTATE AMINOTRANSFERASE: 100.67 u/L
  BLOOD UREA NITROGEN: 16.67 mg/dL
  CARBON DIOXIDE: 29 mmol/L
  CHLORIDE: 101 MEQ/L
  CHOLESTEROL: 54.33 mg/dL
  CREATINE PHOSPHOKINASE: 1017.67 u/L
  CREATININE: 0.13 mg/dL
  GLUCOSE: 145.67 mg/dL
  LACTATE DEHYDROGENASE: 563.33 u/L
  LIPASE: 10 u/L
  PHOSPHORUS: 10.83 mg/dL
  POTASSIUM: 6.11 MEQ/L
  SODIUM: 142.27 MEQ/L
  TOTAL BILIRUBIN: 0.1 mg/dL
  TOTAL PROTEIN: 6 G/DL
  URIC ACID: 1.3 mg/dL
[2]
  ABSOLUTE BASOPHIL: 0 CELLS/uL
  ABSOLUTE EOSINOPHIL: 212 CELLS/uL
  ABSOLUTE LYMPHOCYTE: 11289 CELLS/uL
  ABSOLUTE MONOCYTE: 312.33 CELLS/uL
  ABSOLUTE SEGMENTED NEUTROPHIL: 1786.67 CELLS/uL
  BASOPHIL: 0%
  EOSINOPHIL: 1.67%
  ERYTHROCYTE COUNT: 5.13 x10E6/uL
  HEMATOCRIT: 35.1%
  HEMOGLOBIN: 13.93 G/DL
  LEUKOCYTE COUNT: 13.6 x10E3/uL
  LYMPHOCYTE: 83%
  MEAN CORPUSCULAR HEMOGLOBIN: 27.23 pg
  MEAN CORPUSCULAR HEMOGLOBIN CONCENTRATION: 39.73 G/DL
  MEAN CORPUSCULAR VOLUME: 68.43 fL
  MONOCYTE: 2.33%
  NEUTROPHIL: 13%
  NUCLEATED RED BLOOD CELLS: 0 /100WBC
  PLATELET COUNT: 1111 x10E3/uL
  ALANINE AMINOTRANSFERASE: 40.67 u/L
  ALBUMIN: 4.37 G/DL
  ALKALINE PHOSPHATASE: 464.33 u/L
  ASPARTATE AMINOTRANSFERASE: 82.33 u/L
  BLOOD UREA NITROGEN: 13.33 mg/dL
  CARBON DIOXIDE: 25.33 mmol/L
  CHLORIDE: 100 MEQ/L
  CHOLESTEROL: 69.33 mg/dL
  CREATINE PHOSPHOKINASE: 261.33 u/L
  CREATININE: 0.18 mg/dL
  GLUCOSE: 184.67 mg/dL
  LACTATE DEHYDROGENASE: 180 u/L
  LIPASE: 10.67 u/L
  PHOSPHORUS: 11.87 mg/dL
  POTASSIUM: 5.72 MEQ/L
  SODIUM: 144 MEQ/L
  TOTAL BILIRUBIN: 0.23 mg/dL
  TOTAL PROTEIN: 5.97 G/DL
  URIC ACID: 1.6 mg/dL
[3]
  ABSOLUTE BASOPHIL: 0 CELLS/uL
  ABSOLUTE EOSINOPHIL: 37 CELLS/uL
  ABSOLUTE LYMPHOCYTE: 10260.33 CELLS/uL
  ABSOLUTE MONOCYTE: 119.33 CELLS/uL
  ABSOLUTE SEGMENTED NEUTROPHIL: 1383.33 CELLS/uL
  BASOPHIL: 0%
  EOSINOPHIL: 0.33%
  ERYTHROCYTE COUNT: 5.63 x10E6/uL
  HEMATOCRIT: 35.3%
  HEMOGLOBIN: 14.17 G/DL
  LEUKOCYTE COUNT: 11.8 x10E3/uL
  LYMPHOCYTE: 87%
  MEAN CORPUSCULAR HEMOGLOBIN: 25.2 pg
  MEAN CORPUSCULAR HEMOGLOBIN CONCENTRATION: 40.17 G/DL
  MEAN CORPUSCULAR VOLUME: 62.77 fL
  MONOCYTE: 1%
  NEUTROPHIL: 11.67%
  NUCLEATED RED BLOOD CELLS: 0 /100WBC
  PLATELET COUNT: 1110.33 x10E3/uL
  ALANINE AMINOTRANSFERASE: 46.33 u/L
  ALBUMIN: 4.17 G/DL
  ALKALINE PHOSPHATASE: 346 u/L
  ASPARTATE AMINOTRANSFERASE: 85 u/L
  BLOOD UREA NITROGEN: 17 mg/dL
  CARBON DIOXIDE: 32.33 mmol/L
  CHLORIDE: 99.67 MEQ/L
  CHOLESTEROL: 72.33 mg/dL
  CREATINE PHOSPHOKINASE: 387 u/L
  CREATININE: 0.22 mg/dL
  GLUCOSE: 142.67 mg/dL
  LACTATE DEHYDROGENASE: 421.33 u/L
  LIPASE: 10.67 u/L
  PHOSPHORUS: 12.3 mg/dL
  POTASSIUM: 6.05 MEQ/L
  SODIUM: 144.13 MEQ/L
  TOTAL BILIRUBIN: 0.17 mg/dL
  TOTAL PROTEIN: 6.1 G/DL
  URIC ACID: 1.27 mg/dL
